Consider one molecule from patent US11583498B2 (Wakamono Corporation, priority 2020, dated 2023).

For data set [1] the following is noted: oral administration; cited from earlier work.
A short description of data set [2]: Water dispersibility comparison (FIG. 1). In kind it is physicochemical. The note with it: dispersed in water, vials of FIG. 1. An excerpt: With reference to FIG. 1, water dispersibility was compared between the known 95% Tan IIA and nano Tan IIA obtained by the process according to the present invention, in which Vial A represented the known 95% Tan IIA dispersed in water, Vial B represented nano Tan IIA dispersed in water obtained by the process according to the present invention.

Turning to `Cc1coc2c1C(=O)C(=O)c1c-2ccc2c1CCCC2(C)C` [Tan IIA, Tanshinone IIA], in data set [1], the bioavailability result is given as “low bioavailability”. In addition, in data set [2], the water dispersibility entry was “water insoluble”.
